Reference: US20100137314A1, “HARMFUL ORGANISM CONTROL COMPOSITION” (priority 2007, published 2010)

Assays:
[1] = test system: Bemisia tabaci; test: Test Example 1: cabbage leaf disc immersion test, life or death of Bemisia tabaci imagoes after 4 days; type: in vivo; conditions: foliar, 96 h, compound X alone 1000 ppm, cabbage leaf disc immersed 30 seconds, read-out: Pest controlling value (%)
Description: Ten parts of the compound X was dissolved in 40 parts of xylene and 40 parts of N,N-dimethylformamide, and thereto was added 10 parts of Sorpol 3005X (manufactured by TOHO Chemical Industry Co., LTD.). The mixture was stirred well to prepare a formulation. Separately, 10 parts of any one of the compound I-(5), the compound I-(34), the compound I-(68), the compound I-(70), the compound I-(74), the compound I-(115), the compound I-(117), the compound I-(119), the compound I-(204) and the compound I-(213) was dissolved in 40 parts of xylene and 40 parts of N,N-dimethylformamide, and thereto was added 10 parts of Sorpol 3005X (manufactured by TOHO Chemical Industry Co., LTD.). The mixture was stirred well to prepare a formulation. The formulation of the compound X was diluted with water to a predetermined concentration (1000 ppm). […] After 4 days, the life or death of the Bemisia tabaci imagoes was determined, and a controlling value was calculated by the following equation: […] wherein Cb: the number of insects in a non-treated section before treatment, Cai: the number of insects in a non-treated section on observation, Tb: the number of insects in a treated-section before treatment, Tai: the number of insects in a treated section on observation. […]

[2] = test system: Bemisia tabaci; test: Test Example 2: cabbage leaf disc immersion test, life or death of Bemisia tabaci imagoes after 2 days; type: in vivo; conditions: compound X alone 2000 ppm
Description: Ten parts of the compound I-(138) was dissolved in 40 parts of xylene and 40 parts of N,N-dimethylformamide, and thereto was added 10 parts of Sorpol 3005X (manufactured by TOHO Chemical Industry Co., LTD.). The mixture was stirred well to prepare a formulation.
The formulation of the compound X prepared in Test Example 1 was diluted with water to a predetermined concentration (2000 ppm). To the water dilution was added the formulation of the compound I-(138) so that the concentration of the compound I became a predetermined concentration (800 ppm). To the resulting dilution was added 1/5000 by volume of a spreading agent (New Rinou manufactured by Nihon Nohyaku) to prepare a test diluted solution.
Separately, the formulation of the compound I-(138) was diluted with water to a predetermined concentration (800 ppm). To the water dilution was added 1/5000 by volume of a spreading agent (New Rinou manufactured by Nihon Nohyaku) to prepare a test diluted solution. […]
On the other hand, 3 mL of 1% agar was put in a glass cup having an internal diameter of 2.6 cm and a height of 4.5 cm. […] After 2 days, the life or death of the Bemisia tabaci imagoes was determined, and a controlling value was calculated by the above-described equation.

CC#CCOc1cc(Cc2ccccc2Cl)ncn1 [compound X, 4-(2-chlorobenzyl)-6-(2-butynyloxy)pyrimidine]
pest or weed control at 1000 ppm [1]: 25% | Pest controlling value (%) [2]: 26%
